Data reported in the supplement of paper PMC11208160.

Assay: recombinant UMI read abundance after kanamycin selection (control-corrected) (log10(CPM+1)); higher = more efficient recombination; extreme values may be limits of the assay; sequences stand for … in AGTGCAGAGAAAATCGGCCAGTTTTCTCTGCCTGCAGTCCGCATGCCGTGGGACCCCTTGGGTTCTAACCTGTTGCCTAGATTTATGCAGCGGACTGCCTTTCTCCCAAAGTGATAAACCGG…AGGTTGGTTTCACT; site = the 11-nt donor
Outline: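 Each donor and donor-binding-loop pair was tracked by a 12-nt UMI on a plasmid carrying a promoterless kanamycin gene. With a second plasmid supplying a fixed target and T7-inducible IS621 bridge recombinase, the pool was plated in Escherichia coli on IPTG (0.07 mM) plus kanamycin or unselected. Sequencing of recombinant UMIs across the donor–target junction gave counts expressed as log10(CPM+1) after replicate averaging and control-derived scaling.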
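Also: IS621 bridge recombinase in Escherichia coli cells against a fixed T5 target plasmid.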

| Sequence | recombinant UMI read abundance (log10) |
| --- | --- |
| GATTGGACATGGACCGGTTTTCCCGGTAATCCGTATTTGAG (site GATTGGACTCT) | 1.33 |
| GATTGGACATGGACCGGTTTTCCCGGTAATCCGTATTTGAG (site GATTGGACTGT) | 0 |
| GATTGGACATGGACCGGTTTTCCCGGTAATCCGTATTTGAG (site GATTGGACTTT) | 0.0197 |
| GATTTATCATGGACCGGTTTTCCCGGTAATCCGTATTTGAA (site GATTTATCTTT) | 1.64 |
| GATTTATCATGGACCGGTTTTCCCGGTAATCCGTATTTGGC (site GATTTATCTGC) | 1.38 |
| GATTTGGCATGGACCGGTTTTCCCGGTAATCCGTATTTGTC (site GATTTGGCTGA) | 0 |
| GCAACCTCATGGACCGGTTTTCCCGGTAATCCGTATTTGCC (site GCAACCTCTGG) | 0.0535 |
| GCAACGCCATGGACCGGTTTTCCCGGTAATCCGTATTTGTA (site GCAACGCCTTA) | 0.399 |
| GCAACGCCATGGACCGGTTTTCCCGGTAATCCGTATTTGTA (site GCCACGCCTTA) | 0.026 |
| GCAACGCCATGGACCGGTTTTCCCGGTAATCCGTATTTGTA (site GCGACGCCTTA) | 0.015 |
| GCAACGCCATGGACCGGTTTTCCCGGTAATCCGTATTTGTA (site GCTACGCCTTA) | 0.0211 |
| GCAAGAGCATGGACCGGTTTTCCCGGTAATCCGTATTTGGC (site GCAAGAGCTGC) | 1.82 |
| GCAAGATCATGGACCGGTTTTCCCGGTAATCCGTATTTGGA (site GCAAGATCTTC) | 1.69 |
| GCAAGCTCATGGACCGGTTTTCCCGGTAATCCGTATTTGTG (site GCAAGCTCTCA) | 2.55 |
| GCACGACCATGGACCGGTTTTCCCGGTAATCCGTATTTGCA (site GCACGACCTTG) | 0 |
| GCACGTTCATGGACCGGTTTTCCCGGTAATCCGTATTTGGC (site GCACGTTCTGC) | 2.74 |
| GCACTTGCATGGACCGGTTTTCCCGGTAATCCGTATTTGGC (site GCACTTGCTGC) | 2.1 |
| GCAGAATCATGGACCGGTTTTCCCGGTAATCCGTATTTGCA (site ACAGTATCTTG) | 1.67 |
| GCAGAATCATGGACCGGTTTTCCCGGTAATCCGTATTTGCA (site GCAGAATCTTG) | 2.13 |
| GCAGACACATGGACCGGTTTTCCCGGTAATCCGTATTTGAT (site GCAGACACTAT) | 1.89 |
| GCAGACCCATGGACCGGTTTTCCCGGTAATCCGTATTTGAT (site GCAGACCCTAT) | 0.819 |
| GCAGACCCATGGACCGGTTTTCCCGGTAATCCGTATTTGGG (site GCAGACCCTCC) | 0.0178 |
| GCAGAGACATGGACCGGTTTTCCCGGTAATCCGTATTTGCG (site ACAGAGACTCG) | 2.51 |
| GCAGAGACATGGACCGGTTTTCCCGGTAATCCGTATTTGCG (site CCAGAGACTCG) | 2.58 |
| GCAGAGACATGGACCGGTTTTCCCGGTAATCCGTATTTGCG (site GCAGAGACTCG) | 2.45 |

| Sequence | recombinant UMI read abundance (log10) |
| --- | --- |
| GCAGAGACATGGACCGGTTTTCCCGGTAATCCGTATTTGCG (site TCAGAGACTCG) | 2.34 |
| GCAGCCCCATGGACCGGTTTTCCCGGTAATCCGTATTTGCT (site GCAGCCCCTAG) | 2.32 |
| GCAGCGGCATGGACCGGTTTTCCCGGTAATCCGTATTTGCC (site GCAGCGGCTGG) | 1.22 |
| GCAGGAGCATGGACCGGTTTTCCCGGTAATCCGTATTTGGA (site GCAGGAGCTTC) | 1.41 |
| GCAGGCACATGGACCGGTTTTCCCGGTAATCCGTATTTGCA (site GCAGGCACTTG) | 2.39 |
| GCAGGCGCATGGACCGGTTTTCCCGGTAATCCGTATTTGCG (site GCAGGCGCTCG) | 2.03 |
| GCAGGTGCATGGACCGGTTTTCCCGGTAATCCGTATTTGGC (site GCAGGTGCTGC) | 1.53 |
| GCAGTATCATGGACCGGTTTTCCCGGTAATCCGTATTTGCT (site ACAGTATCTTG) | 0 |
| GCAGTATCATGGACCGGTTTTCCCGGTAATCCGTATTTGCT (site GCAGTATCTAG) | 2.7 |
| GCAGTGTCATGGACCGGTTTTCCCGGTAATCCGTATTTGAT (site GCAGTGTCTAT) | 2.82 |
| GCAGTTACATGGACCGGTTTTCCCGGTAATCCGTATTTGGA (site GCAGTTACTTC) | 1.1 |
| GCATAGACATGGACCGGTTTTCCCGGTAATCCGTATTTGCC (site GAATAGACTGG) | 0.0508 |
| GCATAGACATGGACCGGTTTTCCCGGTAATCCGTATTTGCC (site GCATAGACTGG) | 1.74 |
| GCATAGACATGGACCGGTTTTCCCGGTAATCCGTATTTGCC (site GGATAGACTGG) | 0 |
| GCATAGACATGGACCGGTTTTCCCGGTAATCCGTATTTGCC (site GTATAGACTGG) | 0 |
| GCATGGTCATGGACCGGTTTTCCCGGTAATCCGTATTTGGA (site GCATGGTCTTC) | 1.31 |
| GCATGTGCATGGACCGGTTTTCCCGGTAATCCGTATTTGGT (site GCATGTGCTAC) | 1.79 |
| GCATTGACATGGACCGGTTTTCCCGGTAATCCGTATTTGTT (site GCATTGACTAA) | 1.4 |
| GCCAACTCATGGACCGGTTTTCCCGGTAATCCGTATTTGTT (site GCCAACTCTAA) | 1.65 |
| GCCAAGCCATGGACCGGTTTTCCCGGTAATCCGTATTTGCC (site GCCAAGCCTGG) | 0 |
| GCCAAGTCATGGACCGGTTTTCCCGGTAATCCGTATTTGGG (site GCCAAGTCTCC) | 0.538 |
| GCCAATTCATGGACCGGTTTTCCCGGTAATCCGTATTTGCC (site ACCAATTCTGG) | 0 |
| GCCAATTCATGGACCGGTTTTCCCGGTAATCCGTATTTGCC (site CCCAATTCTGG) | 0 |
| GCCAATTCATGGACCGGTTTTCCCGGTAATCCGTATTTGCC (site GCCAATTCTGG) | 0.426 |
| GCCAATTCATGGACCGGTTTTCCCGGTAATCCGTATTTGCC (site TCCAATTCTGG) | 0 |

| Sequence | recombinant UMI read abundance (log10) |
| --- | --- |
| GCCACACCATGGACCGGTTTTCCCGGTAATCCGTATTTGTA (site GCCACACCTTA) | 0.0107 |
| GCCACACCATGGACCGGTTTTCCCGGTAATCCGTATTTGTA (site GCCACCCCTTA) | 0.00331 |
| GCCACACCATGGACCGGTTTTCCCGGTAATCCGTATTTGTA (site GCCACGCCTTA) | 0.00626 |
| GCCACACCATGGACCGGTTTTCCCGGTAATCCGTATTTGTA (site GCCACTCCTTA) | 0.0198 |
| GCCACGGCATGGACCGGTTTTCCCGGTAATCCGTATTTGTA (site GCCACGACTTA) | 1.24 |
| GCCACGGCATGGACCGGTTTTCCCGGTAATCCGTATTTGTA (site GCCACGCCTTA) | 0.106 |
| GCCACGGCATGGACCGGTTTTCCCGGTAATCCGTATTTGTA (site GCCACGGCTTA) | 1.62 |
| GCCACGGCATGGACCGGTTTTCCCGGTAATCCGTATTTGTA (site GCCACGTCTTA) | 0.163 |
| GCCAGCGCATGGACCGGTTTTCCCGGTAATCCGTATTTGCC (site GCCAGCGCTGG) | 1.98 |
| GCCCCGTCATGGACCGGTTTTCCCGGTAATCCGTATTTGAT (site GCCCCGTCTAT) | 2 |
| GCCCCTTCATGGACCGGTTTTCCCGGTAATCCGTATTTGGG (site GCCCCTTCTCC) | 0.712 |
| GCCGACACATGGACCGGTTTTCCCGGTAATCCGTATTTGTA (site GCCGACACTTA) | 1.4 |
| GCCGATTCATGGACCGGTTTTCCCGGTAATCCGTATTTGCT (site GCCGATTCTAG) | 1.88 |
| GCCGCCCCATGGACCGGTTTTCCCGGTAATCCGTATTTGGC (site GCCGCCCCTGC) | 0 |
| GCCGCTTCATGGACCGGTTTTCCCGGTAATCCGTATTTGGA (site GCCGCTTCTTC) | 1.23 |
| GCCGGGCCATGGACCGGTTTTCCCGGTAATCCGTATTTGCA (site GCCGGGCCTTG) | 0 |
| GCCGTACCATGGACCGGTTTTCCCGGTAATCCGTATTTGTT (site GCCGTACCTAA) | 0.0103 |
| GCCTAGCCATGGACCGGTTTTCCCGGTAATCCGTATTTGTG (site GCCTAGCCTCA) | 0.155 |
| GCCTATACATGGACCGGTTTTCCCGGTAATCCGTATTTGAC (site GCCTATACTGT) | 2.21 |
| GCCTGCCCATGGACCGGTTTTCCCGGTAATCCGTATTTGAT (site GCATGCCCTAT) | 0.0137 |
| GCCTGCCCATGGACCGGTTTTCCCGGTAATCCGTATTTGAT (site GCCTGCCCTAT) | 0.201 |
| GCCTGCCCATGGACCGGTTTTCCCGGTAATCCGTATTTGAT (site GCGTGCCCTAT) | 0.0203 |
| GCCTGCCCATGGACCGGTTTTCCCGGTAATCCGTATTTGAT (site GCTTGCCCTAT) | 0.00989 |
| GCGAAAACATGGACCGGTTTTCCCGGTAATCCGTATTTGAT (site GCGAAAACTAA) | 0 |
| GCGAAAACATGGACCGGTTTTCCCGGTAATCCGTATTTGAT (site GCGAAAACTAC) | 0.0215 |
